Test results from the NIST ThermoML archive (doi:10.1016/j.fluid.2013.06.021).

Assay: xn = mol fraction of the nth substance listed
Conditions: 101 kPa, Liquid; for speed of sound: Sing-around technique in a fixed-path interferometer; for mass density: Vibrating tube method; for viscosity: Capillary tube (Ostwald / Ubbelohde) method

CCCCOCCO [2-butoxyethan-1-ol] + CC(C)O
Conditions | mass density, 303.15 K [kg/m3] | mass density, 308.15 K [kg/m3] | mass density, 313.15 K [kg/m3] | speed of sound, 303.15 K [m/s] | speed of sound, 308.15 K [m/s] | speed of sound, 313.15 K [m/s] | viscosity, 308.15 K [mPa·s]
x1 = 0.0539 | 787.87 | 783.58 | 778.94 | – | 1125.5 | 1108 | –
x1 = 0.054 | – | – | – | – | – | – | 1.576
x1 = 0.1088 | 797.64 | 793.36 | 788.77 | – | 1137.7 | 1120.2 | 1.587
x1 = 0.1607 | 806.24 | 801.96 | 797.4 | – | 1148.9 | 1131.4 | 1.606
x1 = 0.2041 | 812.99 | 808.71 | 804.16 | – | 1157.9 | 1140.5 | 1.624
x1 = 0.2567 | 820.65 | 816.4 | 811.87 | – | 1168.5 | 1151.3 | 1.654
x1 = 0.3095 | 827.86 | 823.61 | 819.11 | – | 1178.8 | 1161.5 | 1.678
x1 = 0.4041 | 839.68 | 835.44 | 830.99 | – | 1195.9 | 1178.7 | 1.734
x1 = 0.5041 | 850.85 | 846.62 | 842.22 | 1229.2 | 1212.1 | 1195.1 | 1.809
x1 = 0.6113 | 861.54 | 857.32 | 852.97 | 1244.9 | 1228 | 1211.1 | 1.886
x1 = 0.7078 | 870.2 | 865.98 | 861.66 | 1257.7 | 1240.6 | 1223.7 | –
x1 = 0.7079 | – | – | – | – | – | – | 1.968
x1 = 0.8095 | 878.49 | 874.28 | 870.01 | 1269.7 | 1252.6 | 1235.8 | 2.056
x1 = 0.857 | 882.1 | 877.88 | 873.63 | 1274.8 | 1257.8 | 1241 | 2.101
x1 = 0.9069 | 885.74 | 881.52 | 877.27 | 1280 | 1263 | 1246.2 | 2.145
x1 = 0.9527 | 888.94 | 884.72 | 880.47 | 1284.7 | 1267.7 | 1250.8 | 2.188
